Test results published in ChEMBL document CHEMBL3045621, “Synthesis and Structure-activity Relationships of Herbicidal Thiophene Sulfonylurea Compounds” (J Pestic Sci, 1997).

Assays:
Oryza sativa = assay: Toxicity in two leaf stage of Oryza sativa var. Nihonbare (rice) assessed as dose required to selectivity to Oryza sativa; type: organism-based; settings: in vivo
Sagittaria pygmaea = assay: Herbicidal activity against Sagittaria pygmaea assessed as dose required to cause sufficient herbicidal activity after 5 to 7 days; type: functional
Echinochloa oryzicola = assay: Herbicidal activity against Echinochloa oryzicola assessed as dose required to cause sufficient herbicidal activity; type: functional
[1] = test system: Schoenoplectiella juncoides; assay: Herbicidal activity against Schoenoplectiella juncoides assessed as dose required to cause sufficient herbicidal activity after 5 to 7 days; type: functional

| Structure (SMILES) | MED (Oryza sativa) [g/acre] | MED (Sagittaria pygmaea) [g/acre] | MED (Echinochloa oryzicola) [g/acre] | MED [1] [g/acre] |
| --- | --- | --- | --- | --- |
| COc1nc(NC(=O)NS(=O)(=O)c2scnc2COCCF)nc(OC)n1 | 2.5 | 2.5 | 2.5 | 2.5 |
| COc1cc(OC)nc(NC(=O)NS(=O)(=O)c2sccc2COc2ccccc2)n1 | 0.625 | 0.313 | 2.5 | 1.25 |
| COc1nc(NC(=O)NS(=O)(=O)c2ccoc2COCCF)nc(OC)n1 | 0.313 | 0.156 | 1.25 | 0.625 |
| COc1cc(OC)nc(NC(=O)NS(=O)(=O)c2sccc2COCC(F)(F)C(F)(F)F)n1 | 0.625 | 2.5 | 5 | 1.25 |
| COc1nc(NC(=O)NS(=O)(=O)c2snc(C)c2COCCF)nc(OC)n1 | 2.5 | 1.25 | 1.25 | 1.25 |
| COc1cc(OC)nc(NC(=O)NS(=O)(=O)c2sccc2COCC(F)F)n1 | 0.312 | 0.0391 | 1.25 | 0.0781 |
| COc1cc(OC)nc(NC(=O)NS(=O)(=O)c2sccc2COCC2CCCO2)n1 (stereo unspecified) | 0.625 | 10 | 5 | 5 |
| O=C(Nc1nc(OC(F)F)cc(OC(F)F)n1)NS(=O)(=O)c1sccc1COCCF | 5 | 5 | 5 | 5 |
| C#CCOCc1ccsc1S(=O)(=O)NC(=O)Nc1nc(OC)cc(OC)n1 | 0.156 | 0.0391 | 0.625 | 0.0781 |
| COc1cc(OC)nc(NC(=O)NS(=O)(=O)c2sccc2COc2cccc(C(F)(F)F)c2)n1 | 0.625 | 20 | 5 | 20 |
| CCN(C)Cc1ccsc1S(=O)(=O)NC(=O)Nc1nc(OC)cc(OC)n1 | 20 | 5 | 20 | 10 |
| COc1nc(NC(=O)NS(=O)(=O)c2ccc3ccccc3c2COCCF)nc(OC)n1 | < 2.5 | <2.5 | <2.5 | <2.5 |
| COc1cc(OC)nc(NC(=O)NS(=O)(=O)c2sccc2Cn2cc(C(F)(F)F)ccc2=O)n1 | 40 | 40 | 40 | 40 |
| COC(=O)NCc1ccsc1S(=O)(=O)NC(=O)Nc1nc(OC)cc(OC)n1 | 2.5 | 0.313 | 20 | 1.25 |
